Data reported in publication PMC6143625, “A high throughput screen for next-generation leads targeting malaria parasite transmission” (Nature Communications, 2018).

Tests used:
[1] = test system: P. falciparum stage V male gametocytes (male gamete formation); assay: P. falciparum dual gamete formation assay (Pf DGFA), male readout (exflagellation), 48 h carry-over format; format: cell-based, Plasmodium falciparum NF54; settings: for %Inhibition Male @2uM: primary screen, 48 h incubation, single replicate; for Male IC50 / IC50: SAR, Fig. 6 and Fig. 7; for IC50: Plasmodium falciparum, read-out: Male IC50; for Selectivity: parasite selectivity compared to Tox50 in HepG2 cells
Method: (§1) P. falciparum NF54 strain (originally isolated from an imported malaria case in the Netherlands in the 1980s; BEI Resources, cat. no. MRA-1000) asexual and sexual stages culture was performed as previously described. Gametocyte cultures were initiated at 1% asexual ring stage parasitaemia and 4% haematocrit in 40 ml final volume. To induce gametocyte production, complete culture medium (CM) (RPMI 1640 supplemented with 25 mM HEPES, 50 µg ml^−1 hypoxanthine, 2 g l^−1 NaHCO3 and 10% pooled human male type A+ serum) was replaced daily for 14 days without fresh erythrocyte addition. Human serum was obtained from Interstate Blood Bank, A^+ serotype; no aspirin 2 h before drawing and no antimalarials 2 weeks before drawing. On day 14 after culture induction, gametocyte production was assessed by thin smear and Giemsa staining, and exflagellation accurately counted in a haemocytometer. Gametocyte cultures with >0.2% exflagellation (compared to total erythrocyte cell number) were deemed acceptable for use in the Pf DGFA. Note, all human biological samples were sourced ethically and their research use was in accord with the terms of the informed consents under an IRB/EC approved protocol.
(§2) In screening mode, the assay was performed as described in Delves et al.[35] with a mean Z′ factor of 0.56 ± 0.14 (SD) (male) and 0.71 ± 0.17 (SD) (female). Pooled mature gametocyte cultures with the capacity to yield >0.2% exflagellation (of total cells) were diluted in CM to 14 million cells per ml and so that 700,000 cells were dispensed in 50 µl into each well of the warmed 384-well screening plates. Parasites were incubated in the plates with compounds for 48 h in a humidified chamber under 92%N2/5% CO2/3% O2 gas mix before gamete formation was triggered by addition of 10 µl per well ookinete medium (RPMI 1640 supplemented with 25 mM HEPES, 50 µg ml^−1 hypoxanthine, 2 g l^−1 NaHCO3, 100 µM xanthurenic acid) containing 0.5 µg ml^−1 anti-Pfs25 clone 4B7 (BEI Resources, cat. no. MRA-315) conjugated to the fluorophore Cy3 (GE Healthcare), and also by cooling the plate at 4 °C for 4 min and then a further 5 min at 28 °C. Exflagellation was recorded immediately by brightfield microscopy using a Nikon Ti-E widefield microscope at ×4 objective, ×1.5 zoom, recording a 10-frame video time-lapse over 2 s for each well. Afterwards, plates were incubated in the dark at 28 °C for a further 24 h to allow female gametes to maximally express Pfs25 on their surface. Female gamete formation was recorded by single-image fluorescence microscopy using the same microscope and magnification as above. Exflagellation and female gamete formation were quantified by specific algorithms designed with the open-source ICY Image Analysis software.
(§3) Assay performance statistics, such as signal to background ratio, Z′ and robust 3×SD activity cut-off were calculated using templates in ActivityBase XE (IDBS, Guilford, Surrey, UK). Hit population analysis and visualisation were conducted using Spotfire DecisionSite (Spotfire, Inc., Somerville, Massachusetts). The pIC50 (−log IC50) values were obtained using the ActivityBase XE nonlinear regression function in the full curve analysis bundle. In screening mode, the Pf DGFA achieved a mean Z′ factor of 0.56 ± 0.14 (SD) (male) and 0.71 ± 0.17 (SD) (female).

[2] = test system: P. falciparum stage V female gametocytes (female gamete formation); assay: P. falciparum dual gamete formation assay (Pf DGFA), female readout (Pfs25 expression), 48 h carry-over format; format: cell-based, Plasmodium falciparum NF54; settings: primary screen, 2 uM, 48 h incubation, single replicate
Method: as §1
as §2, with “Parasites were incubated in the plates with compounds for 48 h in a humidified chamber under” left out
as §3

| Compound | %Inhibition Male @2uM [1] [%] | %Inhibition Female @2uM [2] [%] | Male IC50 [1] | IC50 [1] [µM] | Selectivity [1] |
| --- | --- | --- | --- | --- | --- |
| Cc1ccc(-c2noc(C(C)NS(C)(=O)=O)n2)cc1 (stereo not drawn) [DDD01025633] | 37.79 | <30 |  |  |  |
| Cc1ccc(C(=O)N2CC[C@@]3(O)CCCC[C@H]3C2)cc1 [DDD01026498] | <30 | 36.05 |  |  |  |
| Cn1c(CN2CCCCCC2)cc(=O)c(O)c1CN1CCCC1 [DDD01027184] | 31.50 | <30 |  |  |  |
| NC(=O)Cn1c(CO)cnc1SCc1ccccc1Cl [DDD01027486] | <30 | 30.58 |  |  |  |
| O=C(Nc1ncnc2c1CCC2)c1cccc(F)c1 [DDD01027506] | <30 | 33.11 |  |  |  |
| COCCc1nnc(NC(=O)CSCc2ccccc2)o1 [DDD01027773] | 33.86 | <30 |  |  |  |
| O=S(=O)(c1ccccc1Br)N1CCC2(CC1)OCCS2 [DDD01027971] | <30 | 31.22 |  |  |  |
| C1CCN(c2nc(N3CCOCC3)nc3n[nH]nc23)CC1 [DDD01027997] | <30 | 37.52 |  |  |  |
| Cc1cccc(CS(=O)(=O)NCc2nn(C)c3c2COCC3)c1 [DDD01028624] | <30 | 40.92 |  |  |  |
| CNC(=O)[C@@H]1COC[C@H]2CN(C(=O)c3ccc(OC)cc3)C[C@H]21 [DDD01030727] | <30 | 30.90 |  |  |  |
| Cc1cnc(N2CCC[C@@H]3CN(CC(=O)N(C)C)C[C@@H]32)nc1 [DDD01031282] | <30 | 34.01 |  |  |  |
| O=C(Cc1ccsc1)N1C[C@@H]2OCCN(c3cnccn3)[C@@H]2C1 [DDD01031297] | <30 | 38.82 |  |  |  |
| CCn1ncc2c1C(COC)N(C(=O)c1ccc3c(c1)OCO3)CC2 (stereo not drawn) [DDD01031312] | <30 | 34.92 |  |  |  |
| COCCN1CCO[C@@H]2CN(C(=O)NCc3cccnc3)CC[C@@H]2C1 [DDD01031413] | <30 | 31.80 |  |  |  |
| c1cc(CNCC2Cn3nncc3CO2)co1 (stereo not drawn) [DDD01031485] | <30 | 38.17 |  |  |  |
| Cc1ccc(CN2CCCC3(CCN(Cc4ccoc4)CC3)C2)cc1 [DDD01031609] | <30 | 33.18 |  |  |  |
| Cc1ccc(N2CC[C@@H]3[C@@H]2CCN3C(=O)c2cscn2)nn1 [DDD01031738] | <30 | 32.44 |  |  |  |
| CN1CCN(C(=O)c2cc3c(s2)CCN3C(=O)C2CC2)CC1 [DDD01031830] | <30 | 50.73 |  |  |  |
| CO[C@H]1CC[C@H]2[C@H]1OCCN2Cc1ccc(F)c(F)c1 [DDD01032445] | 37.39 | <30 |  |  |  |
| O=C(O)c1nnn(-c2cc(F)cc(F)c2)c1-c1ccncc1 [DDD01034739] | <30 | 37.18 |  |  |  |
| Cc1cc2c(cc1NC(N)=O)OCO2 [DDD01037848] | <30 | 32.47 |  |  |  |
| O=C(NCc1ccco1)c1[nH]nc2c1CS(=O)(=O)CC2 [DDD01037866] | 48.15 | <30 |  |  |  |
| CCn1nc(C)c2nc(C)nc(NCCc3ccccc3)c21 [DDD01038123] | <30 | 30.36 |  |  |  |
| CCn1cc(CN2CCN(C(=O)c3cc(C)c(C)s3)CC2)c(C)n1 [DDD01038373] | <30 | 36.25 |  |  |  |
| CCN1CCN(C(=O)C2CC(=O)N(c3cnn(C(C)C)c3)C2)CC1 (stereo not drawn) [DDD01038633] | 42.61 | <30 |  |  |  |
| Cc1ccc2c(c1)c(C)cc(=O)n2CCCN [DDD01038649] | <30 | 33.62 |  |  |  |

| Compound | %Inhibition Male @2uM [1] [%] | %Inhibition Female @2uM [2] [%] | Male IC50 [1] | IC50 [1] [µM] | Selectivity [1] |
| --- | --- | --- | --- | --- | --- |
| COc1ccc(NC(=O)c2cnc(C3CCN(C)CC3)nc2C)cc1 [DDD01056828] | 33.07 | <30 |  |  |  |
| CC(=O)Nc1ccc(Br)cc1 [compound 7683] |  |  | Inactive |  |  |
| O=C(CCl)Nc1ccccc1 [compound 11485] |  |  |  | 2.41 | 21 |
| Cc1ccc(NC(=O)CCl)cc1 [compound 27967] |  |  |  | 3.39 | 15 |
| COc1cccc(NC(=O)CCl)c1 [compound 28667] |  |  |  | 2.21 | 14 |
| COc1ccc(NC(=O)CCl)cc1 [compound 31123] |  |  |  | 2.66 | 24 |
| CN(C(=O)CCl)c1ccccc1 [compound 75797] |  |  |  | 6.41 | 2 |
| Cc1ccccc1NC(=O)CCl [compound 101479] |  |  |  | 10.4 | 10 |
| O=C(CCl)N1CCc2ccccc21 [compound 176897] |  |  |  | 1.63 | 8 |
| O=C(CCl)Nc1ccccc1Cl [compound 222444] |  |  |  | 11.2 | 7 |
| O=C(CCl)Nc1ccc(Cl)cc1Cl [compound 225998] |  |  |  | 4.03 | 21 |
| O=C(CCl)Nc1ccc(O)cc1 [compound 236323] |  |  |  | 1.95 | > 51 |
| Cc1cc(Cl)ccc1NC(=O)CCl [compound 249708] |  |  |  | 5.84 | > 17 |
| Cc1cccc(NC(=O)CCl)c1 [compound 296325] |  |  |  | 4.5 | 18 |
| O=C(CCl)Nc1ccccc1O [compound 350567] |  |  | Inactive |  |  |
| O=C(Nc1ccc(Br)cc1)C(Cl)Cl [compound 532122] |  |  | Inactive |  |  |
| O=C1C(Cl)=C(Cl)C(=O)N1c1ccc(Br)cc1 [compound 779209] |  |  | Inactive |  |  |
| N#Cc1ccccc1NC(=O)CCl [compound 819001] |  |  |  | 5.25 | > 19 |
| NCC(=O)Nc1ccc(Br)cc1 [compound 871334] |  |  | Inactive |  |  |
| O=C(CCl)Nc1ccccc1F [compound 1522874] |  |  |  | 3.26 | > 31 |
| Cc1cc(Br)ccc1NC(=O)CCl [compound 2097895] |  |  |  | 4.77 | 4 |
| O=C(Nc1ccc(Br)cc1Cl)C(Cl)(Cl)Cl [compound 2725563] |  |  | Inactive |  |  |
| CC(C)c1cc(Br)ccc1NC(=O)CCl [compound 4066920] |  |  |  | 12.1 | 2 |
| Cc1cc(Br)ccc1NC(=O)CCCCl [compound 19226390] |  |  | Inactive |  |  |
| O=C(CCl)Nc1ccc(CO)cc1 [compound 22457525] |  |  |  | 2.08 | > 48 |
| COC(=O)Nc1ccc(NC(=O)CCl)cc1 [compound 43701226] |  |  | Inactive |  |  |
